The values that follow come from patent publication US20250064945A1 (Arvinas Operations, Inc., priority 2021, published 2025).

The Kd is the constant that tells how readily two partners part at equilibrium. The term DC50 denotes the concentration at which degradation of the target reaches its halfway point. In general, Dmax refers to the greatest extent of degradation seen.

The target of assay [1] is T1, recombinant human 6×His-tagged-BRM (bromodomain-only; aa. 1377-1486) (Homo sapiens, UniProt P51531).
T1 construct: (bromodomain-only; aa; 1377-1486; NP_620614); made in house; host or cells: Escherichia coli
Kind of assay: AlphaLISA competitive BRM binding assay. The settings on record: 7 nM 6×His-BRM, 20 nM biotinylated probe. On the procedure:
AlphaLISA Competitive BRM Binding Assay
Compounds were serially diluted in 100% DMSO in 3-fold increments. An intermediate compound plate was created at 10% DMSO in AlphaLISA buffer (50 mM Hepes, pH 7.5, 50 mM NaCl, […] Brij-35, 0.1 mg/mL BSA) and then […] of compound transferred from the intermediate plate into a white, 384-OptiPlate (Perkin Elmer, #6007290). A solution of protein (recombinant human 6×His-tagged-BRM (bromodomain-only; aa. 1377-1486; NP_620614) expressed in Escherichia coli) and biotinylated probe are mixed and pre-incubated for 10 minutes. Following incubation, […] of protein/probe solution is added to each well of the 384-OptiPlate, resulting in final assay concentration of 7 nM protein (6×His-BRM) and 20 nM biotinylated probe. Compound and protein/probe solution were incubated at room temperature for 10 minutes. […] of anti-His conjugated AlphaLISA acceptor beads (PerkinElmer #AL128M), diluted 100× in AlphaLISA buffer, were added to each well of the assay plate. This addition was followed by a 10-minute incubation at room temperature, in the dark. Lastly, […] of streptavidin donor beads (PerkinElmer #6760002), diluted 100× in AlphaLISA buffer, were added to each well of the assay plate. Final assay plate was incubated for 15 minutes before read, signal is stable up to 4 hours after donor bead addition.
Assay plates were read using an Envision® multimode microplate reader (PerkinElmer #2105-0010) using the Europium/615 nm emission filter. Data is reported as percent displacement, 100% binding is based on the average fluorescent count (FC) of zero compound column and 0% binding is based on the average fluorescent count (FC) of zero protein (His-BRM) column. Percent displacement is calculated based on the following equation:
((100% Binding FC−Compound Well FC)/(100% Binding FC−0% Binding FC))*100
Data is fit using a 4-parameter non-linear regression analysis in GraphPad Prism.
Background: Bead proximity is the source of the signal in Alpha formats.

For the next assay, the target named is T2, BRM (Homo sapiens, UniProt P51531).
T2 construct: In-Cell Western Screen of BRM Degradation in SW1573 Cells; endogenous in cells; host or cells: SW1573 cells
Description: Western blot / In-Cell Western screen of BRM degradation in SW1573 cells. The class given is cell-based. The settings on record: overnight (18-20 hours) treatment. Put shortly:
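SW1573 cells treated overnight (18-20 hours) with compound at 0.1% final DMSO. BRM measured either by Western blot of RIPA lysates with alpha-tubulin control and chemiluminescent detection, or by In-Cell Western on fixed, permeabilized cells with LI-COR dual-channel read against alpha-tubulin; Dmax and DC50 derived.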

Structures are written as SMILES. Where a name gives a salt, the structure may show the parent alone.

Turning to `CN1CC2CCC(C1)N2c1cnc2nc(-c3ccccc3O)cn2c1` [BRM15, 2-[6-(3-methyl-3,8-diazabicyclo[3.2.1]octan-8-yl)imidazo[1,2-a]pyrimidin-2-yl] phenol], the Kd in assay [1] was in the range of 2.5 to 10 µM.
Still for that read-out and setting: the value for `Nc1nc2nc(-c3ccccc3O)cn2cc1C#Cc1ccncc1` [BRM5] was 2.5 to 10 µM.
Still for that read-out and setting: the same measure for `Cn1cc(-c2cn3cc(-c4ccccc4O)nc3nc2N)cn1` [BRM18, 2-[7-amino-6-(1-methylpyrazol-4-yl)imidazo[1,2-a]pyrimidin-2-yl]phenol]: under 0.5 µM; for `CN1CCN(c2cc(N)nc3nc(-c4ccccc4O)cn23)CC1` [BRM7]: at least 10 µM.
On the same count and under the same terms, the value for `COCCOCC#Cc1cn2cc(-c3ccccc3O)nc2nc1N` [BRM13] was under 0.5 µM; that for `C#Cc1cnc2nc(-c3ccccc3O)cn2c1` [BRM12] was at least 10 µM.
For the compound `Cn1cc(-c2cc(N)nc3nc(-c4ccccc4O)cn23)cn1` [BRM8], in assay [1], the Kd is at least 10 µM.
In the case of `Oc1ccccc1-c1cn2cccnc2n1` [BRM1], the Kd in assay [1] fell in the range of 0.5 to 2.5 µM.
For `CN1C2CCC1CN(c1cc(N)nc3nc(-c4ccccc4O)cn13)C2` [BRM10], in assay [1], the Kd was at least 10 µM.
Same read-out and setting: the same measure for `COC/C=C/c1cnc2nc(-c3ccccc3O)cn2c1` [BRM17, 2-[6-[(E)-3-methoxyprop-1-enyl]imidazo[1,2-a]pyrimidin-2-yl]phenol]: 2.5 to 10 µM.
The same measure, in the same setting: the value for `Oc1ccn2cc(-c3ccccc3O)nc2n1` [BRM4, 2-(2-hydroxyphenyl) imidazo[1,2-a]pyrimidin-7-ol trifluoroacetate] was at least 10 µM; that for `Nc1cc(C#Cc2ccncc2)n2cc(-c3ccccc3O)nc2n1` [BRM9] was at least 10 µM; that for `C#Cc1cn2cc(-c3ccccc3O)nc2nc1N` [BRM3] was under 0.5 µM.
The same measure, in the same setting: the same measure for `Cn1cc(-c2cnc3nc(-c4ccccc4O)cn3c2)cn1` [BRM16, 2-[6-(1-methylpyrazol-4-yl)imidazo[1,2-a]pyrimidin-2-yl] phenol]: 0.5 to 2.5 µM.
With `COC/C=C/c1cn2cc(-c3ccccc3O)nc2nc1N` [BRM19, 2-[7-amino-6-[(E)-3-methoxyprop-1-enyl]imidazo [1,2-a]pyrimidin-2-yl]phenol], the Kd in assay [1] was under 0.5 µM.
Same read-out and setting: the same measure for `Nc1ccn2cc(-c3ccccc3O)nc2n1` [BRM2]: under 0.5 µM; for `Oc1ccccc1-c1cn2cc(C#Cc3ccncc3)cnc2n1` [BRM11]: at least 10 µM.
Still for that read-out and setting: the value for `C#Cc1cc(N)nc2nc(-c3ccccc3O)cn12` [BRM6] was 2.5 to 10 µM; that for `CN1CCN(c2cnc3nc(-c4ccccc4O)cn3c2)CC1` [BRM14, 2-[6-(4-methylpiperazin-1-yl)imidazo[1,2-a]pyrimidin-2-yl]phenol] was 0.5 to 2.5 µM.
At BRM, `Cc1ncsc1-c1ccc([C@H](C)NC(=O)[C@@H]2C[C@@H](O)CN2C(=O)[C@H](c2cc(OCCN3CCN(CCOc4cc(N5CCN(c6cc(-c7ccccc7O)nnc6N)CC56COC6)ccn4)CC3)no2)C(C)C)cn1` [Compound 16, (2S,4R)-1-[(2S)-2-{3-[2-(4-{2-[(4-{8-[3-amino-6-(2-hydroxyphenyl)pyridazin-4-yl]-2-oxa-5,8-diazaspiro[3.5]nonan-5-yl}pyridin-2-yl)oxy]ethyl}piperazin-1-yl)ethoxy]-1,2-oxazol-5-yl}-3-methylbutanoyl]-4-hydroxy-N-[(1S)-1-[6-(4-methyl-1,3-thiazol-5-yl)pyridin-3-yl]ethyl]pyrrolidine-2-carboxamide] gave a DC50 of at least 0.03 µM.
Compound `CC(C)[C@@H](C(=O)N1C[C@H](O)C[C@H]1C(=O)N[C@@H](C)c1ccc(-c2ccnn2C)cc1)c1cc(N2CCC(CN3CCC(O[C@H]4C[C@H](OC/C=C/c5cn6cc(-c7ccccc7O)nc6nc5N)C4)CC3)CC2)no1` [Compound 45, (2S,4R)-4-hydroxy-N-[(1S)-1-[4-(1-methyl-1H-pyrazol-5-yl)phenyl]ethyl]-1-[(2R)-3-methyl-2-{3-[4-({4-[(1r,3r)-3-{[(2E)-3-[7-amino-2-(2-hydroxyphenyl)imidazo[1,2-a]pyrimidin-6-yl]prop-2-en-1-yl]oxy}cyclobutoxy]piperidin-1-yl}methyl)piperidin-1-yl]-1,2-oxazol-5-yl}butanoyl]pyrrolidine-2-carboxamide] came in with a DC50 on BRM of under 0.0025 µM. Also, on BRM (read-out: Dmax (%) (% degraded)), the Dmax is over 75%.
